Assay results taken from patent US20230181601A1, “TREATMENT OF NON-ALCOHOLIC STEATOHEPATITIS (NASH)” (DURECT CORPORATION, priority 2020, published 2023).

Experiments:
[1] = Single oral dose safety and pharmacokinetic study in NASH and healthy subjects; type: in vivo, human
Description: The present Example was a randomized, dose ranging, single dose safety and pharmacokinetic study of 25HC3S administered to subjects with NASH and control healthy subjects. […] For each cohort, 10 subjects with NASH were enrolled which were further classified into cirrhotic and non-cirrhotic. Each subject received only one dose of study treatment. The second cohort was dosed after a review of safety and tolerability data from Cohort 1.

[2] = Metabolite profiling of plasma, urine and feces after intravenous dose; type: in vivo, male Sprague Dawley rats; conditions: intravenous 10 mg/kg
Description: (§1) Nine male Sprague Dawley rats (Group 1) were designated for the pharmacokinetic phase, 3 male Sprague Dawley rats (Group 2) for the excretion mass balance phase, and 7 male Sprague Dawley rats (Group 3) and 9 male Long Evans rats (Group 4) for the tissue distribution phase. All animals received a single intravenous dose of [^14C]-25HC3S at 10 mg/kg and a target radioactivity of 225 μCi/kg. Blood samples were collected from all Group 1 animals at approximately 0.083, 0.25, 0.5, 1, 2, 4, 8, 12, 24, 48, and 72 hours post-dose. Urine and feces were collected from all Group 2 animals periodically through 168 hours post-dose. […] Following blood collection, animals were euthanized by CO2 inhalation and carcasses frozen in a dry ice/hexane bath for processing by quantitative whole body autoradiography. Whole blood, plasma, urine, feces, cage rinse, and cage wash were analyzed for total radioactivity by liquid scintillation counting.

[3] = Metabolite profiling of plasma and feces after oral dose; type: in vivo, rats; conditions: 75 mg/kg oral
From the text: Radiolabeled components in plasma and feces extracts were profiled and identified using radio-high performance liquid chromatography (HPLC) and high performance liquid chromatography/mass spectrometry (HPLC/MS) methods.

[4] = Plasma pharmacokinetics of radioactivity after single intravenous dose; type: in vivo, male Sprague Dawley rats; conditions: 10 mg/kg single intravenous (bolus)
From the text: (§2) The objectives of this study were to determine the plasma pharmacokinetics of [4-^14C]-25HC3S-derived radioactivity in male Sprague Dawley rats, determine the routes of elimination and excretion mass balance of [4-^14C]-25HC3S-derived radioactivity in male Sprague Dawley rats, determine the tissue distribution and tissue pharmacokinetics of [4-^14C]-25HC3S-derived radioactivity using quantitative whole body autoradiography methods in male Sprague Dawley and Long Evans rats following a single intravenous (bolus) dose, and to provide plasma, urine, and fecal homogenate samples for metabolite profiling of [4-^14C]-25HC3S-derived radioactivity.
as §1

[5] = Excretion mass balance after single intravenous dose; type: in vivo, male Sprague Dawley rats; conditions: 10 mg/kg intravenous, over 168 hours
From the text: as §2
as §1, with “μCi/kg.” for “μCi/kg. Blood samples were collected from all Group 1 animals at approximately 0.083, 0.25, 0.5, 1, 2, 4, 8, 12, 24, 48, and 72 hours post-dose. Urine and feces were collected from all Group 2 animals periodically through 168 hours post-dose.”

[6] = Tissue distribution by quantitative whole body autoradiography after single intravenous dose; type: in vivo, male Sprague Dawley rats; conditions: 10 mg/kg intravenous
From the text: as §2, §1

[7] = Tissue distribution by quantitative whole body autoradiography after single intravenous dose, pigmented rats; type: in vivo, male Long Evans rats; conditions: 10 mg/kg intravenous
From the text: as §2
as §1, with “μCi/kg.” for “μCi/kg. Blood samples were collected from all Group 1 animals at approximately 0.083, 0.25, 0.5, 1, 2, 4, 8, 12, 24, 48, and 72 hours post-dose. Urine and feces were collected from all Group 2 animals periodically through 168 hours post-dose.”

[8] = Plasma pharmacokinetics of radioactivity after single oral (gavage) dose; type: in vivo, rats; conditions: 75 mg/kg single oral (gavage)
[9] = Excretion mass balance after single oral (gavage) dose; type: in vivo, rats; conditions: 75 mg/kg single oral (gavage)
[10] = Tissue distribution by quantitative whole body autoradiography after single oral (gavage) dose; type: in vivo, male Sprague Dawley rats; conditions: 75 mg/kg oral
[11] = 50 mg single oral dose, Healthy, Geometric Mean
[12] = 50 mg single oral dose, Healthy, Mean
[13] = 50 mg single oral dose, NASH, Geometric Mean
[14] = 50 mg single oral dose, NASH, Mean
[15] = 200 mg single oral dose, Healthy, Geometric Mean
[16] = 200 mg single oral dose, Healthy, Mean
[17] = 200 mg single oral dose, NASH, Geometric Mean
[18] = 200 mg single oral dose, NASH, Mean

C[C@H](CCCC(C)(C)O)[C@H]1CC[C@H]2[C@@H]3CC=C4C[C@@H](OS(=O)(=O)[O-])CC[C@]4(C)[C@H]3CC[C@]12C.[Na+] [25HC3S sodium]
AUC0-12 [1, 11]: 0.4967 µg·h/mL | AUC0-last [1, 11]: 0.45 µg·h/mL | AUCinf [1, 11]: 0.4233 µg·h/mL | CL/F [1, 11]: 118.11 L/h | Cmax [1, 11]: 0.090946 µg/mL | T1/2 [1, 11]: 1.889 h | Tmax [1, 11]: 2.834 h | AUC0-12 [1, 12]: 0.528 µg·h/mL | AUC0-last [1, 12]: 0.4771 µg·h/mL | AUCinf [1, 12]: 0.4386 µg·h/mL | CL/F [1, 12]: 122.35 L/h | Cmax [1, 12]: 0.093967 µg/mL | T1/2 [1, 12]: 1.906 h | Tmax [1, 12]: 3.008 h | AUC0-12 [1, 13]: 0.5978 µg·h/mL | AUC0-last [1, 13]: 0.4761 µg·h/mL | AUCinf [1, 13]: 0.6083 µg·h/mL | CL/F [1, 13]: 82.19 L/h | Cmax [1, 13]: 0.107627 µg/mL | T1/2 [1, 13]: 1.670 h | Tmax [1, 13]: 2.305 h | AUC0-12 [1, 14]: 0.6231 µg·h/mL | AUC0-last [1, 14]: 0.5133 µg·h/mL | AUCinf [1, 14]: 0.6361 µg·h/mL | CL/F [1, 14]: 85.29 L/h | Cmax [1, 14]: 0.11317 µg/mL | T1/2 [1, 14]: 1.674 h | Tmax [1, 14]: 2.408 h | AUC0-12 [1, 15]: 1.1628 µg·h/mL | AUC0-last [1, 15]: 1.1725 µg·h/mL | AUCinf [1, 15]: 1.1812 µg·h/mL | CL/F [1, 15]: 169.32 L/h | Cmax [1, 15]: 0.255698 µg/mL | T1/2 [1, 15]: 1.719 h | Tmax [1, 15]: 2.528 h | AUC0-12 [1, 16]: 1.1759 µg·h/mL | AUC0-last [1, 16]: 1.1857 µg·h/mL | AUCinf [1, 16]: 1.1943 µg·h/mL | CL/F [1, 16]: 171.25 L/h | Cmax [1, 16]: 0.2605 µg/mL | T1/2 [1, 16]: 1.753 h | Tmax [1, 16]: 2.673 h | AUC0-12 [1, 17]: 1.4952 µg·h/mL | AUC0-last [1, 17]: 1.5392 µg·h/mL | AUCinf [1, 17]: 1.4118 µg·h/mL | CL/F [1, 17]: 141.66 L/h | Cmax [1, 17]: 0.318582 µg/mL | T1/2 [1, 17]: 2.196 h | Tmax [1, 17]: 2.647 h | AUC0-12 [1, 18]: 1.541 µg·h/mL | AUC0-last [1, 18]: 1.5816 µg·h/mL | AUCinf [1, 18]: 1.4285 µg·h/mL | CL/F [1, 18]: 143.19 L/h | Cmax [1, 18]: 0.3327 µg/mL | T1/2 [1, 18]: 2.511 h | Tmax [1, 18]: 2.906 h

C[C@H](CCCC(C)(C)O)[C@H]1CC[C@H]2[C@@H]3CC=C4C[C@@H](O)CC[C@]4(C)[C@H]3CC[C@]12C [M29, 25-hydroxycholesterol]
detection in plasma, urine, or feces samples [2]: Neither desmosterol sulfate nor 25-hydroxycholesterol was detected | relative observed intensity (ROI) in plasma ([3]; 2 hour postdose plasma): 37% | % of total dose in feces ([3]; pools 0 to 168 hours post-dose): 1.9 % of total dose | concentration at 2 h ([3]; Sprague Dawley, rat, 2 hour postdose plasma): 1230 ng/g

C[C@H](CCCC(C)(C)O)[C@H]1CC[C@H]2[C@@H]3CC=C4[14CH2][C@@H](OS(=O)(=O)O)CC[C@]4(C)[C@H]3CC[C@]12C [[4-^14C]-25HC3S]
terminal elimination phase T1/2 ([4]; plasma, PK phase): 26.6 h | mean plasma C0 ([4]; total radioactivity): 25,900 ng-equiv./g | plasma AUClast ([4]; total radioactivity): 27,900 h*ng-equiv./g | dose recovered in urine, feces, and cage rinse [5]: approximately 100.2% | recovered radioactivity in feces [5]: 83.0% | plasma:whole blood AUClast ratio [6]: 0.79 | tissue distribution by QWBA [6]: broadly distributed and detected by quantitative whole body autoradiography in all tissues except the eye (lens) | whole blood AUClast ([6]; Group 3): 25,200 h*ng-equiv./g | T1/2 in plasma ([6]; QWBA phase): 44.3 h | T1/2 in whole blood ([6]; QWBA phase): 52.2 h | maximum plasma concentration ([6]; QWBA phase): 12,400 ng-equiv./g | tissue:plasma ratio, liver ([6]; calculated using AUClast): 11.4 | tissue:plasma ratio, small intestine (wall) ([6]; calculated using AUClast): 7.44 | AUClast in liver ([6]; radioactivity): ≤ 364,000 hng/g | binding to pigmented or non-pigmented skin or the uveal tract [7]: no difference | plasma or whole blood concentrations versus Sprague Dawley rats ([7]; first 168 hours postdose): no substantial difference

C[C@H](CCCC(C)(C)O)[C@H]1CC[C@H]2[C@@H]3CC=C4CC(OS(=O)(=O)O)CC[C@]4(C)[C@H]3CC[C@]12C (stereo partly shown) [[^14C]-25HC3S]
terminal elimination phase T1/2 [8]: 27.3 h | plasma AUClast ([8]; radioactivity): 96,400 h.ng equiv./g | dose recovered in urine, feces, and cage rinse [9]: approximately 94.5% | recovered radioactivity in feces [9]: 94.2% | plasma:whole blood AUClast ratio [10]: 1.12 | skin, thymus, prostate, and pituitary tissue concentrations [10]: < 3000 ng equiv./g | tissue Tmax [10]: ≤ 6 h | tissue distribution by QWBA [10]: broadly distributed and detected by quantitative whole body autoradiography in all tissues except the eye (lens) | uveal tract and brain concentrations [10]: approximately 1000 ng equiv./g | whole blood AUClast [10]: 127,000 h.ng equiv./g | tissue:plasma ratio, adrenal gland ([10]; calculated using AUClast): 6.64 | tissue:plasma ratio, liver ([10]; calculated using AUClast): 6.96 | tissue:plasma ratio, small intestine (wall) ([10]; calculated using AUClast): 15.4

desmosterol sulfate
detection in plasma, urine, or feces samples [2]: Neither desmosterol sulfate nor 25-hydroxycholesterol was detected | detection in plasma or feces samples [3]: not found
